This test concerns guinea pig airway smooth muscle tone. As to the kind of experiment: In-vivo model of baseline airway smooth muscle tone. To be noted: anesthetized guinea pigs; atropine delivered selectively to the trachea via Krebs buffer perfusion; isometric tension of tracheal rings 6 and 7. Also on record: dose or concentration left out as unconfirmed. The text has this:
FIG. 10: Schematic illustration of the method for assessing vagally-mediated baseline airay smooth muscle tone in anesthetized guinea pigs. (As described in, Mazzone and Canning, Curr. Protoc. Pharmacol. 2002. May 1; Chapter 5: Unit 5.26.)
Methods for studying vagally-mediated bronchospasm in anesthetized guinea pigs have been described in detail elsewhere (Mazzone and Canning, Curr Protoc Pharmacol. 2002 May 1; Chapter 5:Unit 5.26; Auton Neurosci. 2002 Aug. 30; 99(2):91-101) and shown in FIG. 10. Guinea pigs are anesthetized with urethane (1.5 g/kg ip). The trachea and vagus nerves are visualized by a midline incision in the neck. The trachea is cannulated and connected to a constant volume ventilator (6 mL/kg body weight). The animals are then paralyzed with succinylcholine (2.5 mg/kg sc). An artery and vein are cannulated to monitor cardiovascular parameters and for drug delivery. The vagus nerves are placed on bipolar electrodes. […] Bronchospasm is recorded as a percentage increase in pulmonary inflation pressure.
Using the method illustrated in FIG. 10, the portion of the trachea where isometric tension was measured (rings 6 and 7 caudal to the larynx) was perfused with warmed (37° C.), oxygenated Krebs buffer, which was used for selective delivery of atropine ([…]) to the trachea. […]

“Also recorded” adds a separate entry of the source.

Take `CN1[C@@H]2CC[C@H]1C[C@@H](OC(=O)C(CO)c1ccccc1)C2` (stereo partly shown) [atropine]: the “baseline airway smooth muscle tone” value is “decrease in baseline airway smooth muscle tone; also recorded: Inhibition of guinea pig airway smooth muscle tone”.

These data come from patent publication US10441787B2, “Neuromodulation device” (GALVANI BIOE[…], priority 2015, dated 2019).
